From ChEMBL document CHEMBL4043140, “Synthesis of different heterocycles-linked chalcone conjugates as cytotoxic agents and tubulin polymerization inhibitors” (Bioorg Med Chem, 2017) come the findings set out here.

In general, IC50 refers to the midpoint of a concentration-inhibition curve. A high value points to a need for much substance.

Where only a bound is given, the exact number is not on record here.

For one assay, the system named is NCI-H460. Kind of assay: Antiproliferative activity against human NCI-H460 cells after 48 hrs by MTT assay. The assay is classed as functional, cell-based. As to conditions: NCI-H460, 48 h. Background: Tetrazolium dyes change colour on reduction, which living cells bring about.
Another assay relates to HCT-15. Kind of assay: Antiproliferative activity against human HCT15 cells after 48 hrs by MTT assay. It is filed as functional, cell-based. As to conditions: HCT-15, 48 h.
The test system of the next assay is DU-145. Kind of assay: Antiproliferative activity against human DU145 cells after 48 hrs by MTT assay. The assay is classed as functional, cell-based. As to conditions: DU-145, 48 h.
The test system of a further assay is HCT-116. Kind of assay: Antiproliferative activity against human HCT116 cells after 48 hrs by MTT assay. The assay is classed as functional, cell-based. Particulars: HCT-116, 48 h.
Another assay deals with PC-3. Kind of assay: Antiproliferative activity against human PC3 cells after 48 hrs by MTT assay. It is filed as functional, cell-based. As to conditions: PC-3, 48 h.
A further assay relates to A549. Kind of assay: Antiproliferative activity against human A549 cells after 48 hrs by MTT assay. It is filed as functional, cell-based. Particulars: A549, 48 h.
Assay [1] can be described thus: Antiproliferative activity against human U87 cells after 48 hrs by MTT assay. The assay is classed as functional, cell-based, U-87MG ATCC. Particulars: U-87 MG.

In the case of `COc1cc(/C=C/C(=O)c2ccc(Cl)cc2)ccc1OCCCN1CCCc2ccccc21`, the half-maximal inhibitory concentration (IC50) was above 20 µM in the assay on NCI-H460; above 20 µM with HCT-15; 18.1 µM in the assay on DU-145; above 20 µM with HCT-116; above 20 µM with PC-3; above 20 µM with A549. Also, inhibition in assay [1] was half-maximal at 16.2 µM (IC50).

Take `COc1ccc(C(=O)/C=C/c2ccc(OCCCN3CCOCC3)c(OC)c2)cc1`: the IC50 came to 9.89 µM with NCI-H460; 11 µM in the assay on HCT-15; 2.02 µM in the assay on DU-145; 6.78 µM in the assay with HCT-116; 7.89 µM in the assay on PC-3; 5.36 µM with A549. The IC50 in assay [1] was found to be 7.12 µM.

As to `COc1ccc(C(=O)/C=C/c2ccc(OCCCn3nc(C)cc3C)c(OC)c2)cc1`, the concentration for half-maximal inhibition (IC50) in the assay with NCI-H460 was determined as 8.96 µM; in the assay on HCT-15, 4.03 µM; in the assay on DU-145 it was 5.74 µM; in the assay on HCT-116, 3.97 µM; with PC-3, 4.78 µM; with A549, 3.7 µM. This compound also yielded a half-maximal inhibitory concentration (IC50) in assay [1] of 6.93 µM.

As for `COc1cc(/C=C/C(=O)c2ccc(Cl)cc2)ccc1OCCCCN1CCCCC1`, the IC50 with NCI-H460 is 10.2 µM; in the assay with HCT-15, 8.11 µM; in the assay with DU-145 it was 7.74 µM; in the assay with HCT-116, above 20 µM; with PC-3, 6.84 µM; in the assay with A549 it was 8.99 µM. This compound also returned a concentration for half-maximal inhibition (IC50) in assay [1] of 8.01 µM.

In the case of `COc1cc(/C=C/C(=O)c2ccc(Br)cc2)ccc1OCCCN1CCCc2ccccc21`, the IC50 in the assay with NCI-H460 is above 20 µM; with HCT-15 it was above 20 µM; in the assay with DU-145 it was above 20 µM; in the assay on HCT-116, above 20 µM; in the assay on PC-3, above 20 µM; in the assay on A549, 19.1 µM. In addition, the IC50 in assay [1] was above 20 µM.

Take `COc1ccc(C(=O)/C=C/c2ccc(OCCN3CCOCC3)c(OC)c2)cc1`: the half-maximal inhibitory concentration (IC50) in the assay on NCI-H460 was 9.96 µM; with HCT-15, 7.54 µM; in the assay on DU-145 it was 8.74 µM; in the assay on HCT-116, above 20 µM; with PC-3 it was 9.19 µM; in the assay with A549, 8.21 µM. Inhibition in assay [1] was half-maximal at 7.09 µM (IC50).

In the case of `COc1ccc(C(=O)/C=C/c2ccc(OCCCN3CCCc4ccccc43)c(OC)c2)cc1`, the half-inhibitory concentration (IC50) in the assay with NCI-H460, in the assay on HCT-15, with DU-145, in the assay with HCT-116, in the assay on PC-3 and in the assay with A549 was above 20 µM in each case. For the same compound, the IC50 in assay [1] amounted to 18.2 µM.

For `COc1cc(/C=C/C(=O)c2ccc(Br)cc2)ccc1OCCCN1CCCCC1`, the half-inhibitory concentration (IC50) in the assay on NCI-H460 is 8.16 µM; in the assay with HCT-15 it was above 20 µM; in the assay on DU-145, 17.1 µM; in the assay on HCT-116, above 20 µM; in the assay with PC-3, 8.93 µM; with A549, 16.5 µM. The same compound yielded an IC50 in assay [1] above 20 µM.

Regarding `COc1cc(/C=C/C(=O)c2ccccc2O)ccc1OCCCN1CCCCC1`, the IC50 with NCI-H460 came to 1.63 µM; with HCT-15, 3.24 µM; in the assay with DU-145, 2.73 µM; with HCT-116, 2.01 µM; in the assay with PC-3, 1.95 µM; with A549, 3.13 µM. The compound further had an IC50 in assay [1] of 2.87 µM.

As to `COc1ccc(/C=C\c2cc(OC)c(OC)c(OC)c2)cc1O` [COMBRETASTATIN A4], the half-maximal inhibitory concentration (IC50) was 0.048 µM in the assay with NCI-H460; 8.87 µM in the assay on HCT-15; 0.28 µM in the assay with DU-145; 9.12 µM in the assay on HCT-116; 3.53 µM in the assay with PC-3; 9.29 µM in the assay with A549. Besides, in assay [1], the IC50 is 9.75 µM.

Turning to `COc1ccc(C(=O)/C=C/c2ccc(OCCCN3CC(C)OC(C)C3)c(OC)c2)cc1` (stereo not drawn), the IC50 was 4.18 µM with NCI-H460; 8.64 µM in the assay on HCT-15; 3.27 µM with DU-145; 7.87 µM in the assay on HCT-116; above 20 µM in the assay on PC-3; 7.42 µM in the assay with A549. In assay [1], this compound yielded a half-maximal inhibitory concentration (IC50) of 5.67 µM.

With `COc1cc(/C=C/C(=O)c2ccccc2)ccc1OCCCCN1CCCCC1`, the IC50 was above 20 µM in the assay with NCI-H460; above 20 µM in the assay with HCT-15; above 20 µM in the assay with DU-145; above 20 µM in the assay on HCT-116; 9.18 µM with PC-3; above 20 µM with A549. The compound further had a concentration for half-maximal inhibition (IC50) in assay [1] above 20 µM.

With `COc1cc(/C=C/C(=O)c2ccc(C)cc2)ccc1OCCCN1CC(C)OC(C)C1` (stereo not drawn), the 50% inhibitory concentration (IC50) in the assay with NCI-H460 is above 20 µM; in the assay with HCT-15, 8.69 µM; with DU-145, above 20 µM; with HCT-116, 5.45 µM; with PC-3, above 20 µM; in the assay on A549, 9.12 µM. In assay [1], this compound yielded a half-maximal inhibitory concentration (IC50) of 4.21 µM.

Regarding `COc1cc(/C=C/C(=O)c2ccc(Br)cc2)ccc1OCCCCN1CCCCC1`, the IC50 was above 20 µM with NCI-H460; 8.97 µM in the assay on HCT-15; above 20 µM in the assay on DU-145; above 20 µM in the assay on HCT-116; 7.54 µM with PC-3; 9.06 µM with A549. Half-maximal inhibition in assay [1] (IC50) was put at 4.01 µM.

Consider `COc1cc(/C=C/C(=O)c2ccccc2)ccc1OCCCN1CCCc2ccccc21`, for which the IC50 in the assay with NCI-H460, with HCT-15, in the assay with DU-145, with HCT-116, with PC-3 and in the assay on A549 was above 20 µM throughout. In assay [1], this compound came in with an IC50 of 19.8 µM.

Take `COc1cc(/C=C/C(=O)c2ccccc2OC)ccc1OCCCN1CC(C)OC(C)C1` (stereo not drawn): the IC50 in the assay on NCI-H460 was 8.1 µM; in the assay with HCT-15, 6.36 µM; in the assay on DU-145, 3.87 µM; in the assay with HCT-116, 6.48 µM; with PC-3 it was above 20 µM; in the assay on A549, 5.32 µM. This compound yielded an IC50 in assay [1] of 5.03 µM.

In the case of `COc1ccc(C(=O)/C=C/c2ccc(OCCCN3CCc4ccccc43)c(OC)c2)cc1`, the IC50 in the assay with NCI-H460 is above 20 µM; in the assay with HCT-15, 19.9 µM; in the assay with DU-145, 16.1 µM; with HCT-116 it was above 20 µM; in the assay on PC-3, above 20 µM; in the assay on A549 it was 18.7 µM. In addition, the 50% inhibitory concentration (IC50) in assay [1] was found to be 15.2 µM.

With `COc1cc(/C=C/C(=O)c2ccc(Br)cc2)ccc1OCCN1CCOCC1`, the IC50 was above 20 µM in the assay on NCI-H460; above 20 µM in the assay on HCT-15; 9.74 µM with DU-145; above 20 µM in the assay with HCT-116; 8.89 µM in the assay with PC-3; 12.1 µM in the assay on A549. In assay [1], this compound returned a 50% inhibitory concentration (IC50) above 20 µM.

`COc1cc(/C=C/C(=O)c2ccc(Cl)cc2Cl)ccc1OCCCN1CCCc2ccccc21`: the half-maximal inhibitory concentration (IC50) with NCI-H460 was above 20 µM; in the assay with HCT-15, above 20 µM; in the assay with DU-145 it was above 20 µM; in the assay on HCT-116 it was above 20 µM; in the assay with PC-3, 8.17 µM; in the assay with A549, above 20 µM. Besides, the half-maximal inhibitory concentration (IC50) in assay [1] was above 20 µM.

For `COc1cc(/C=C/C(=O)c2ccc(C(F)(F)F)cc2)ccc1OCCN1CCOCC1`, the IC50 in the assay on NCI-H460 was above 20 µM; in the assay with HCT-15, above 20 µM; in the assay with DU-145, above 20 µM; with HCT-116, above 20 µM; in the assay with PC-3, 6.17 µM; in the assay with A549, 19.1 µM. Besides, the IC50 in assay [1] was above 20 µM.

As to `COc1cc(/C=C/C(=O)c2ccc(Cl)cc2Cl)ccc1OCCCN1CCc2ccccc21`, the IC50 with NCI-H460 was above 20 µM; in the assay with HCT-15, above 20 µM; with DU-145 it was above 20 µM; with HCT-116, 19.2 µM; in the assay on PC-3, above 20 µM; with A549 it was above 20 µM. This compound showed a 50% inhibitory concentration (IC50) in assay [1] of 19.8 µM.

Turning to `COc1cc(/C=C/C(=O)c2ccc(Cl)cc2Cl)ccc1OCCCN1CC(C)OC(C)C1` (stereo not drawn), the concentration for half-maximal inhibition (IC50) in the assay with NCI-H460 was above 20 µM; in the assay with HCT-15, above 20 µM; with DU-145, above 20 µM; with HCT-116, above 20 µM; in the assay with PC-3, 8.87 µM; in the assay on A549, above 20 µM. The IC50 in assay [1] was above 20 µM.

In the case of `COc1cc(/C=C/C(=O)c2ccc(Cl)cc2Cl)ccc1OCCCCN1CCCCC1`, the 50% inhibitory concentration (IC50) in the assay with NCI-H460 is 16.3 µM; with HCT-15 it was above 20 µM; in the assay with DU-145, 5.73 µM; in the assay on HCT-116, above 20 µM; with PC-3 it was 7.29 µM; in the assay on A549 it was 9.48 µM. Besides, half-maximal inhibition in assay [1] (IC50) required 6.09 µM.

As to `COc1cc(/C=C/C(=O)c2ccc(Cl)cc2Cl)ccc1OCCN1CCOCC1`, the 50% inhibitory concentration (IC50) in the assay with NCI-H460 was above 20 µM; in the assay on HCT-15 it was 18.2 µM; with DU-145 it was 6.74 µM; in the assay on HCT-116, 19.9 µM; with PC-3 it was 5.12 µM; in the assay on A549, above 20 µM. In addition, in assay [1], the IC50 was above 20 µM.
